# Measured values published in patent US8530680B2, “System and method for controlling growth of microorganisms with brominated furanones” (Syracuse University, priority 2008, dated 2013).
# Tested on: C. albicans strain SC5341 gene expression
# Test: DNA microarray gene expression of C. albicans after BF1 treatment
# Assay type: cell-based, Candida albicans
# Settings: for Induction expression ratio: 3 μg/mL BF1, 45 minutes
# Method: An overnight culture of C. albicans strain SC5341 grown in SD medium was sub-cultured in 25 mL of the same medium to an initial OD600 of 0.005 and grown till the OD600 was 1.0. The culture was diluted using fresh SD medium to a volume of 100 mL with an initial OD600 of 0.6, and it was grown till the OD600 reached 1.0, which took approximately 2 hours. Then the culture was split into two equal portions, with 3 μg/mL of BF1 added to the first one and the same amount of ethanol added to the second one to eliminate the effects of ethanol. […] Forty-five minutes after BF1 addition, the cells were harvested by centrifugation at 13,200 rpm at 4° C. for 30 sec and stored at −80° C. until RNA isolation. To lyse the cells, 1.5 mL of Trizol reagent (Invitrogen® Co., Carlsbad, Calif.) and 0.5 mL of 0.5 mm glass beads were added to the frozen tubes containing C. albicans cell pellets. The tubes were closed tightly and beaten for 30 sec at 4,800 oscillations/minute using a mini bead beater (Biospec Products Inc., Bartlesville, Okla.). The total RNA was extracted using Trizol reagent by following the manufacture's protocol. The extracted RNA was further cleaned up using an RNeasy mini-kit (QIAGEN® Inc., Valencia, Calif.), including on-column DNA digestion with RNase-free DNase I. The RNA yield was quantified by OD260 reading, and the RNA integrity was checked, using agarose gel electrophoresis. The RNA samples were sent to the DNA MicroArray Lab at the Biotechnology Research Institute, National Research Council of Canada (Montreal, Canada) to further check the integrity and DNA microarray hybridization. RNA from a control sample and that from a furanone-treated sample were hybridized to each array. A total of four DNA microarrays were used and four biological replicates were tested. The data were analyzed using Genespring GX version 7.3 (Agilent Technologies®, Santa Clara Calif.). […] Gene functions were annotated by searching the Candida Genome Database at (www.candidagenome.org).
structure (smiles),measurement,setting,value
"CCCCC1=C(Br)/C(=C/Br)OC1=O [BF1, 4-bromo-5Z-(bromomethylene)-3-butylfuran-2-one]",Induction expression ratio,orf19.113 CIP1,3.17
same,Induction expression ratio,orf19.1167,1.65
same,Induction expression ratio,orf19.1237 ARO9,1.87
same,Induction expression ratio,orf19.125 EBP1,13.87
same,Induction expression ratio,orf19.1286,1.97
same,Induction expression ratio,orf19.1421 DAL3,1.58
same,Induction expression ratio,orf19.1783 YOR1,1.78
same,induction of gene CPD1 in DNA microarray,"orf19.2175 (CPD1), 3 μg/mL BF1",12.94 fold
same,Induction expression ratio,orf19.2175,10.94
same,Induction expression ratio,orf19.2262,2.68
same,Induction expression ratio,orf19.23 RTA3,5.01
same,Induction expression ratio,orf19.2396 IFR2,2.05
same,Induction expression ratio,orf19.2693,3.97
same,Induction expression ratio,orf19.2825 DRE2,1.69
same,Induction expression ratio,orf19.3131 OYE32,12.89
same,Induction expression ratio,orf19.3139,8.82
same,Induction expression ratio,orf19.320,14.98
same,Induction expression ratio,orf19.3234 OYE22,4.00
same,Induction expression ratio,orf19.3340 SOD2,1.72
same,Induction expression ratio,orf19.3433 OYE23,20.04
same,Induction expression ratio,orf19.3443 OYE2,3.30
same,Induction expression ratio,orf19.3707 YHB1,2.65
same,Induction expression ratio,orf19.4940 HIP1,2.57
same,Induction expression ratio,orf19.5059 GCS1,1.96
same,Induction expression ratio,orf19.5604 MDR1,5.36
same,Induction expression ratio,orf19.5992 WOR2,1.54
same,Induction expression ratio,orf19.6059 TTR2,1.80
same,Induction expression ratio,orf19.6275,1.94
same,Induction expression ratio,orf19.6869,4.21
same,Induction expression ratio,orf19.7306,2.87
same,Induction expression ratio,orf19.7531,2.53
same,Induction expression ratio,orf19.896 CHK1,1.54
same,Induction expression ratio,orf19.93,1.53
same,Induction expression ratio,repressed gene orf19.1097 ALS4,0.42
same,Induction expression ratio,repressed gene orf19.1344,0.60
same,Induction expression ratio,repressed gene orf19.270,0.47
same,Induction expression ratio,repressed gene orf19.2896 SOU1,0.60
same,Induction expression ratio,repressed gene orf19.2959.1,0.64
same,Induction expression ratio,repressed gene orf19.3066 ENG1,0.57
same,Induction expression ratio,repressed gene orf19.3629 DSE1,0.66
same,Induction expression ratio,repressed gene orf19.3794 CSR1,0.60
same,Induction expression ratio,repressed gene orf19.4337 ESBP6,0.65
same,Induction expression ratio,repressed gene orf19.4737 TPO3,0.60
same,Induction expression ratio,repressed gene orf19.5170 ENA21,0.61
same,Induction expression ratio,repressed gene orf19.5193 FMA1,0.61
same,Induction expression ratio,repressed gene orf19.5267,0.56
same,Induction expression ratio,repressed gene orf19.5565,0.43
same,Induction expression ratio,repressed gene orf19.6073 HMX1,0.59
same,Induction expression ratio,repressed gene orf19.6077,0.51
same,Induction expression ratio,repressed gene orf19.6245,0.67
same,Induction expression ratio,repressed gene orf19.716,0.51
same,Induction expression ratio,repressed gene orf19.742 ALD6,0.33
same,Induction expression ratio,repressed gene orf19.7502,0.67
same,Induction expression ratio,repressed gene orf19.7586 CHT3,0.66
